In the supplement of paper PMC11061612:

How the values were obtained:
Test in all cases: Bliss excess, mean over the matrix (fraction); higher = more synergy
[1] = test system: NB10 (Neuroblastoma)
In short: (§1)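 Cell lines grown in DMEM/F12 or RPMI with 10% FBS were plated in 1536-well plates and held 24 hours at 37°C, 5% CO2 before 72 hours of exposure to two-drug dose matrices, with DMSO typically at 0.2%. CellTiter-Glo 2.0 luminescence gave viability, which was converted to inhibition. Vehicle wells were set to 0 and blank wells to 1. Combination Emax is the second-highest inhibition in the matrix, and Bliss excess is the observed combination effect minus the expected EA + EB − EA·EB, where EA and EB are the single-agent effects.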

[2] = test system: Calu-3 (Lung Adenocarcinoma)
In short: as §1

[3] = test system: LNCaP-Clone-FGC (Prostate Carcinoma)
In short: as §1

[4] = test system: LS-180 (Colorectal Carcinoma)
In short: as §1

[5] = test system: KP-1N (Pancreatic Carcinoma)
In short: as §1

[6] = test system: HCC1806 (Breast Carcinoma)
In short: as §1

[7] = test system: ES4 (Ewing's Sarcoma)
In short: as §1

[8] = test system: MFE-296 (Endometrial Carcinoma)
In short: as §1

[9] = test system: MDA-MB-361 (Breast Carcinoma)
In short: as §1

[10] = test system: DoTc2-4510 (Cervical Carcinoma)
In short: as §1

[11] = test system: Ramos-2G6-4C10 (Burkitt's Lymphoma)
In short: as §1

[12] = test system: SK-ES-1 (Ewing's Sarcoma)
In short: as §1

[13] = test system: TCCSUP (Bladder Carcinoma)
In short: as §1

[14] = test system: B-CPAP (Thyroid Gland Carcinoma)
In short: as §1

[15] = test system: UM-UC-3 (Bladder Carcinoma)
In short: as §1

[16] = test system: HuP-T4 (Pancreatic Carcinoma)
In short: as §1

[17] = test system: NOS-1 (Osteosarcoma)
In short: as §1

[18] = test system: HT-1376 (Bladder Carcinoma)
In short: as §1

[19] = test system: CaR-1 (Colorectal Carcinoma)
In short: as §1

[20] = test system: NCI-H2085 (Non-Small Cell Lung Carcinoma)
In short: as §1

Structure (SMILES) | Bliss excess [1] | Bliss excess [2] | Bliss excess [3] | Bliss excess [4] | Bliss excess [5] | Bliss excess [6] | Bliss excess [7] | Bliss excess [8] | Bliss excess [9] | Bliss excess [10] | Bliss excess [11] | Bliss excess [12] | Bliss excess [13] | Bliss excess [14] | Bliss excess [15] | Bliss excess [16] | Bliss excess [17] | Bliss excess [18] | Bliss excess [19] | Bliss excess [20]
NC1(C(=O)N[C@@H](CCO)c2ccc(Cl)cc2)CCN(c2ncnc3[nH]ccc23)CC1 [Capivasertib] + C[C@@H]1COCCN1C2=NC(=NC(=C2)C3(CC3)[S@](=N)(=O)C)C4=C5C=CNC5=NC=C4 [AZD6738] (first compound max 10 µM, 7x7, partner max 10 µM) | -0.0364 | -0.0381 | 0.0099 | -0.159 | -0.0824 | -0.0333 | -0.0919 | -0.0508 | -0.11 | -0.0192 | 0.0183 | -0.0831 | -0.0312 | -0.0465 | 0.0085 | -0.0333 | -0.0057 | -0.0153 | -0.0194 | -0.0192
NC1(C(=O)N[C@@H](CCO)c2ccc(Cl)cc2)CCN(c2ncnc3[nH]ccc23)CC1 [Capivasertib] + Cn1cnc2c(F)c(Nc3ccc(Br)cc3Cl)c(C(=O)NOCCO)cc21 [Selumetinib] (first compound max 10 µM, 7x7, partner max 10 µM) | 0.037 | 0.0295 | -0.0143 | -0.0247 | 0.0357 | 0.0578 | -0.0219 | -0.0133 | 0.0297 | 0.0133 | -0.0166 | 0.0507 | -0.0385 | 0.0496 | 0.0946 | 0.028 | -0.019 | -0.0149 | 0.0076 | 0.0035
Cc1nc(Nc2ncc(C(=O)Nc3c(C)cccc3Cl)s2)cc(N2CCN(CCO)CC2)n1 [Dasatinib] + CC(=O)Nc1cccc(-n2c(=O)n(C3CC3)c(=O)c3c(Nc4ccc(I)cc4F)n(C)c(=O)c(C)c32)c1 [Trametinib] (first compound max 2 µM, 7x7, partner max 1 µM) | -0.0024 | 0.0074 | -0.0361 | 0.0883 | 0.0493 | -0.0461 | -0.0951 | -0.0328 | -0.0072 | -0.0338 | 0 | -0.0256 | -0.0443 | -0.0158 | 0.112 | 0.0075 | 0.0688 | 0.0158 | -0.0711 | 0.0168
COc1cccc2c1C(=O)c1c(O)c3c(c(O)c1C2=O)C[C@@](O)(C(=O)CO)C[C@@H]3O[C@H]1C[C@H](N)[C@H](O)[C@H](C)O1 [Doxorubicin] + Cc1cc2ncnn2cc1Nc1ncc2c(n1)n(C1CCOCC1)c(=O)n2C [AZD7648] (first compound max 1 µM, 7x7, partner max 10 µM) | 0.0799 | -0.0006 | 0.0417 | 0.0033 | 0.0574 | 0.0499 | 0.0761 | -0.0119 | 0.0255 | 0.0248 | 0.0786 | 0.143 | 0.0282 | 0.106 | 0.0688 | 0.0316 | 0.0202 | -0.0544 | 0.0309 | 0.0299
COc1cc2ncnc(Nc3ccc(F)c(Cl)c3)c2cc1OCCCN1CCOCC1 [Gefitinib] + CC(C)n1c(=O)n(C)c2cnc3cc(F)c(-c4ccc(OCCCN5CCCCC5)nc4)cc3c21 [AZD1390] (first compound max 10 µM, 7x7, partner max 0.3 µM) | -0.0629 | -0.048 | -0.0491 | -0.0623 | -0.0625 | -0.0425 | -0.0177 | -0.0483 | -0.0535 | -0.0601 | -0.0626 | -0.0733 | -0.0593 | -0.0752 | -0.0583 | -0.0574 | -0.063 | -0.0387 | -0.0812 | -0.0515
CS(=O)(=O)CCNCc1ccc(-c2ccc3ncnc(Nc4ccc(OCc5cccc(F)c5)c(Cl)c4)c3c2)o1 [Lapatinib] + C[C@@H](Oc1cc(-c2cnn(C3CCNCC3)c2)cnc1N)c1c(Cl)ccc(F)c1Cl [Crizotinib] (first compound max 10 µM, 7x7, partner max 10 µM) | -0.0771 | 0.0052 | -0.0575 | 0.0173 | -0.0435 | -0.0266 | -0.0261 | -0.0288 | 0.0278 | -0.0321 | -0.113 | -0.0015 | -0.0611 | -0.0393 | -0.0739 | 0.0261 | -0.0114 | -0.0343 | -0.0084 | -0.0813
CC(=O)c1c(C)c2cnc(Nc3ccc(N4CCNCC4)cn3)nc2n(C2CCCC2)c1=O [Palbociclib] + CC1(C)CCC(CN2CCN(c3ccc(C(=O)NS(=O)(=O)c4ccc(NCC5CCOCC5)c([N+](=O)[O-])c4)c(Oc4cnc5[nH]ccc5c4)c3)CC2)=C(c2ccc(Cl)cc2)C1 [Venetoclax] (first compound max 10 µM, 7x7, partner max 1 µM) | 0.0062 | -0.0252 | 0.0267 | -0.0124 | -0.0396 | -0.0213 | -0.0334 | -0.0262 | -0.0751 | -0.058 | -0.106 | 0.0758 | -0.0508 | 0.0002 | -0.0219 | -0.0281 | 0.0157 | -0.0453 | -0.0507 | -0.0306
CC(=O)c1c(C)c2cnc(Nc3ccc(N4CCNCC4)cn3)nc2n(C2CCCC2)c1=O [Palbociclib] + Cc1c2c(nn1C)CSCc1cc(n(C)n1)CSc1cc(c3ccccc3c1)OCCCc1c(C(=O)O)n(C)c3c-2c(Cl)ccc13 [AZD5991] (first compound max 10 µM, 7x7, partner max 1 µM) | 0.0435 | -0.0039 | 0.0049 | -0.0515 | -0.0384 | -0.0164 | -0.046 | -0.0142 | -0.0789 | -0.0143 | -0.0226 | -0.0088 | -0.0395 | -0.0722 | -0.0212 | -0.0184 | -0.0006 | -0.0073 | -0.0621 | -0.0374
CC(=O)c1c(C)c2cnc(Nc3ccc(N4CCNCC4)cn3)nc2n(C2CCCC2)c1=O [Palbociclib] + Cn1cnc2c(F)c(Nc3ccc(Br)cc3Cl)c(C(=O)NOCCO)cc21 [Selumetinib] (first compound max 10 µM, 7x7, partner max 10 µM) | 0.0998 | -0.0095 | 0.0237 | 0.0098 | -0.0715 | 0.0382 | -0.0359 | -0.0574 | -0.0238 | -0.0384 | -0.023 | -0.0161 | -0.0438 | 0.0321 | -0.0001 | 0.0396 | -0.0152 | -0.047 | -0.0229 | 0.0018
COc1cccc(OCCCN)c1-c1cc(Nc2cnc(C#N)cn2)n[nH]1 [Prexasertib] + C=CCn1c(=O)c2cnc(Nc3ccc(N4CCN(C)CC4)cc3)nc2n1-c1cccc(C(C)(C)O)n1 [AZD1775] (first compound max 1 µM, partner max 1 µM) | 0.13 | 0.0255 | -0.0172 | 0.184 | 0.0763 | 0.0552 | 0.0978 | 0.116 | 0.0331 | 0.048 | 0.112 | 0.0454 | 0.0389 | 0.154 | 0.14 | 0.0747 | 0.0924 | -0.0538 | 0.086 | 0.124
COc1cccc(OCCCN)c1-c1cc(Nc2cnc(C#N)cn2)n[nH]1 [Prexasertib] + CCc1c2c(nc3ccc(O)cc13)-c1cc3c(c(=O)n1C2)COC(=O)[C@]3(O)CC [SN-38] (first compound max 1 µM, 7x7, partner max 0.3 µM) | -0.0986 | -0.0003 | -0.0782 | -0.0629 | 0 | -0.001 | -0.0923 | 0.0106 | -0.0298 | 0.0167 | 0.0754 | -0.0081 | 0.0743 | 0.0695 | 0.0017 | -0.0424 | 0.0864 | -0.0265 | -0.053 | -0.0245
COc1cccc(OCCCN)c1-c1cc(Nc2cnc(C#N)cn2)n[nH]1 [Prexasertib] + CN(C)CCCOc1ccc(-c2ccc3ncc4c(c3c2)n(C2CCOCC2)c(=O)n4C)cn1 [AZD0156] (first compound max 1 µM, 7x7, partner max 1 µM) | 0.015 | -0.0668 | -0.0374 | -0.0605 | 0.0236 | -0.0262 | 0.0147 | -0.0163 | 0.0014 | -0.0208 | 0.0693 | 0.0075 | -0.0021 | -0.0156 | -0.0174 | -0.0273 | 0.0551 | -0.007 | -0.0442 | 0.006
COc1cccc(OCCCN)c1-c1cc(Nc2cnc(C#N)cn2)n[nH]1 [Prexasertib] + C[C@@H]1COCCN1C2=NC(=NC(=C2)C3(CC3)[S@](=N)(=O)C)C4=C5C=CNC5=NC=C4 [AZD6738] (first compound max 1 µM, 7x7, partner max 10 µM) | -0.0145 | -0.0108 | -0.0427 | 0.0194 | 0.0331 | -0.0472 | -0.0489 | -0.0456 | -0.018 | -0.0218 | -0.0191 | -0.0132 | -0.0245 | -0.0345 | 0.0563 | -0.0504 | 0.0721 | -0.0105 | 0.0097 | -0.0092
COc1cccc(OCCCN)c1-c1cc(Nc2cnc(C#N)cn2)n[nH]1 [Prexasertib] + Cc1cc2ncnn2cc1Nc1ncc2c(n1)n(C1CCOCC1)c(=O)n2C [AZD7648] (first compound max 1 µM, 7x7, partner max 10 µM) | -0.0407 | 0.0049 | -0.0617 | -0.0329 | -0.0207 | -0.0193 | -0.0121 | -0.0093 | -0.0196 | 0.0159 | 0.0025 | -0.0257 | -0.0182 | 0.0049 | -0.0198 | 0.0127 | 0.0514 | -0.0373 | 0.0141 | -0.0481
COc1cccc(OCCCN)c1-c1cc(Nc2cnc(C#N)cn2)n[nH]1 [Prexasertib] + O=C(c1cc(Cc2n[nH]c(=O)c3ccccc23)ccc1F)N1CCN(C(=O)C2CC2)CC1 [Olaparib] (first compound max 1 µM, 7x7, partner max 10 µM) | -0.0272 | -0.0558 | -0.049 | -0.0348 | 0.0018 | -0.0284 | -0.0699 | -0.0516 | -0.0509 | -0.0041 | -0.0875 | 0.0008 | -0.006 | -0.007 | -0.0015 | -0.0834 | 0.0177 | -0.0976 | -0.0635 | -0.208
